Data from patent US7893074B2, “2, 4-pyrimidinediamines useful in the treatment of neoplastic diseases, inflammatory and immune system disorders” (Novartis AG, priority 2003, dated 2011).

What was measured:
[1] = target: Focal Adhesion Kinase (FAK) (Homo sapiens, UniProt Q05397); assay: FAK assay system (Focal Adhesion Kinase inhibition); type: biochemical; details: read-out: FAK IC50
[2] = test system: Mouse mammary carcinoma 4T1 cells; assay: Anchorage-independent tumor cell growth assay; type: cell-based; details: Mus musculus, 4T1
Method: Cells are cultured for 2 h and inhibitors are added at various concentrations in a final concentration of 0.1% DMSO. After 48 h, cell growth is assayed with the cell counting kit-8 (Wako Pure Chemical), which uses a water soluble tetrazolium salt WST8. Twenty μL of the reagent is added into each well and cells are further cultured for 2 h. The optical density is measured at 450 nm.

FAK = FAK (Mus musculus, UniProt P34152); assay: Phos IC50 (phosphorylation); type: cell-based
Chain of FAK (P34152 2-1052): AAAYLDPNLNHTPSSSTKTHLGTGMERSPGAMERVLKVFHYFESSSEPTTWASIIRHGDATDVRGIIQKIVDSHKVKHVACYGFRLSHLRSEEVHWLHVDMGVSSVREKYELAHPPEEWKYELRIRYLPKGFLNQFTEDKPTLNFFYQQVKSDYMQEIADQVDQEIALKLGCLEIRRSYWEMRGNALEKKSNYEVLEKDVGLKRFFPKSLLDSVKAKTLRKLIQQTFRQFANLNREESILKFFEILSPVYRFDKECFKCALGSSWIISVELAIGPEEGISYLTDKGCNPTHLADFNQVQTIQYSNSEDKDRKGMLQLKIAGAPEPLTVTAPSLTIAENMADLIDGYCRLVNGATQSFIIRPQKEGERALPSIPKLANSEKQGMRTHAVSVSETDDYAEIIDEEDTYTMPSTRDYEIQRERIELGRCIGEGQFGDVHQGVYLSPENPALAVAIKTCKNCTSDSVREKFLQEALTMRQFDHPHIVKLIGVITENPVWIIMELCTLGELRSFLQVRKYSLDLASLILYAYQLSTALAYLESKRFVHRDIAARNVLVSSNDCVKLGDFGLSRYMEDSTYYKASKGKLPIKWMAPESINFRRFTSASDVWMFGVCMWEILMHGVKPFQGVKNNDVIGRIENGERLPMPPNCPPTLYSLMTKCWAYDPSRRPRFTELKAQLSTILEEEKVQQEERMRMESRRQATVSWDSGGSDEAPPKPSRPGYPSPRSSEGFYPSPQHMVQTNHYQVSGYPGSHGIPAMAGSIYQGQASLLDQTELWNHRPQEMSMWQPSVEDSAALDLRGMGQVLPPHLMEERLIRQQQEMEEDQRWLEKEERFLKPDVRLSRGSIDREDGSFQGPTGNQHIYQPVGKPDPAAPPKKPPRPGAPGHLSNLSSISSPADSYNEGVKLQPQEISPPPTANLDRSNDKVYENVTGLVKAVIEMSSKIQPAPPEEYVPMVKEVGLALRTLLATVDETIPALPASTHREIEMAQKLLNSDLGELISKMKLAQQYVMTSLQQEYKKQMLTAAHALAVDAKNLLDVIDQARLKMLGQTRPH

Chain of Focal Adhesion Kinase (FAK) (Q05397 384-706): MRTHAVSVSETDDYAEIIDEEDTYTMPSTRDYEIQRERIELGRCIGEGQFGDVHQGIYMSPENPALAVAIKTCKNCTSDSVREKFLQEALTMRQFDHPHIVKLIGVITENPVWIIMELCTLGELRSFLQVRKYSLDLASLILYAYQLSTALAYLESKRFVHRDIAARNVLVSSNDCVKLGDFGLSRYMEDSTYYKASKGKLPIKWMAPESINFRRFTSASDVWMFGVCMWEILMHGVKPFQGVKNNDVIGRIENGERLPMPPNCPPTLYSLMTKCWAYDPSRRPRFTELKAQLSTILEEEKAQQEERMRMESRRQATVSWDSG

| Compound | IC50 [1] [nM] | IC50 [2] [nM] | IC50 (FAK) [nM] |
| --- | --- | --- | --- |
| CNS(=O)(=O)c1ccccc1Nc1nc(Nc2cccc(OC)c2OC)ncc1Br [Example 3-14] | 54 | 5000 | 400 |
| CNS(=O)(=O)c1ccccc1Nc1nc(Nc2cc(C)cc(C)c2C)ncc1Br [Example 3-16] | 48 | 3000 | 1100 |
| CNS(=O)(=O)c1ccccc1Nc1nc(Nc2cc(C(C)C)ccc2C)ncc1Br [Example 3-18] | 130 | 9000 | 1500 |
| CNS(=O)(=O)c1ccccc1Nc1nc(Nc2cc(C(=O)N3CCOCC3)ccc2C)ncc1Br [Example 3-22] | 120 | 2000 | 900 |
| CNS(=O)(=O)c1ccccc1Nc1nc(Nc2cc(-c3cccc(OC)c3)ccc2C)ncc1Br [Example 3-28] | 43 | 700 | 710 |
| CCOc1ccc(-c2ccccc2)cc1Nc1ncc(Br)c(Nc2ccccc2S(=O)(=O)NC)n1 [Example 3-29] | 89 | > 10000 | 600 |
| CNS(=O)(=O)c1ccccc1Nc1nc(Nc2cccc3c2CCCC3)ncc1Br [Example 3-31] | 13 | 5000 | 1100 |
| CNS(=O)(=O)c1ccccc1Nc1nc(Nc2ccc(F)cc2Cl)ncc1Br [Example 3-37] | 39 | 2600 | 1100 |
| CNS(=O)(=O)c1ccccc1Nc1nc(Nc2cc(F)ccc2Cl)ncc1Br [Example 3-38] | 64 | 3800 | 1700 |
| CNS(=O)(=O)c1ccccc1Nc1nc(Nc2ccc(N3CCSCC3)cc2OC)ncc1Br [Example 3-41] | 22 | 430 | > 10000 |
| CNS(=O)(=O)c1ccccc1Nc1nc(Nc2cccc3c2ccn3CCCN2CCOCC2)ncc1Br [Example 3-45] | 0.9 | 20 | 20 |
| CNS(=O)(=O)c1ccccc1Nc1nc(Nc2ccc(N3CCNCC3)cc2OC)ncc1Br [Example 3-47] | 1 | 60 | 100 |
| CNS(=O)(=O)c1ccccc1Nc1nc(Nc2cc(Cl)ccc2OC)ncc1Br [Example 3-52] | 29 | 2000 | 420 |
| CCOc1ccc(OCC)c(Nc2ncc(Br)c(Nc3ccccc3S(=O)(=O)NC)n2)c1 [Example 3-55] | 34 | 3000 | > 10000 |
| CCOc1ccc(N2CCOCC2)cc1Nc1ncc(Br)c(Nc2ccccc2S(=O)(=O)NC)n1 [Example 3-57] | 28 | 3000 | 610 |
| CNS(=O)(=O)c1ccccc1Nc1nc(Nc2cc(OC)ccc2OCCO)ncc1Br [Example 3-60] | 90 | 2000 | 930 |
| CNS(=O)(=O)c1ccccc1Nc1nc(Nc2cc(OC)ccc2OC(C)C)ncc1Br [Example 3-62] | 63 | > 10000 | > 10000 |
| CNS(=O)(=O)c1ccccc1Nc1nc(Nc2ccc(OCCCN3CCOCC3)cc2OC)ncc1Br [Example 3-70] | 3.5 | 130 | 20 |
| CNS(=O)(=O)c1ccccc1Nc1nc(Nc2ccc(OCCCN3CCN(C)CC3)cc2OC)ncc1Br [Example 3-72] | 2.1 | 60 | 110 |
| CNS(=O)(=O)c1ccccc1Nc1nc(Nc2cc(F)ccc2F)ncc1Br [Example 3-77] | 65 | 3000 | > 10000 |
| CNS(=O)(=O)c1ccccc1Nc1nc(Nc2ccc(OC3CCNCC3)cc2OC)ncc1Br [Example 3-79] | 5 | 120 | 1300 |
| CNC(=O)c1ccccc1Nc1nc(Nc2ccc(N3CCC(O)CC3)cc2OC)ncc1Cl [Example 7-8] | 8.7 | 1000 | 800 |
| CNC(=O)c1ccccc1Nc1nc(Nc2ccc(N3CCC(OCCOC)CC3)cc2OC)ncc1Cl [Example 7-10] | 6.6 | 980 | 1000 |
| CNC(=O)c1ccccc1Nc1nc(Nc2ccc(N3CCC(C(N)=O)CC3)cc2OC)ncc1Cl [Example 7-13] | 5.5 | 1220 | 800 |
| CNC(=O)c1ccccc1Nc1nc(Nc2cccc3[nH]ccc23)ncc1Cl [Example 7-27] | 21 | 220 | 500 |
| CNC(=O)c1ccccc1Nc1nc(Nc2cccc3c2ccn3C)ncc1Cl [Example 7-28] | 34 | 150 | 1000 |
| CNC(=O)c1ccccc1Nc1nc(Nc2ccc(N3CCOCC3)c3c2ccn3C)ncc1Cl [Example 7-29] | 57 | 480 | 2000 |
| CNC(=O)c1ccccc1Nc1nc(Nc2ccc(F)cc2OC)ncc1Br [Example 8-4] | 8 | 1100 | > 10000 |
| CCNC(=O)c1ccccc1Nc1nc(Nc2cc(N3CCC(N4CCCCC4)CC3)ccc2OC)ncc1Cl [Example 9-7] | 17 | 260 | > 10000 |

Now from value to molecule:

| IC50 [1] [nM] | IC50 [2] [nM] | IC50 (FAK) [nM] | Compound |
| --- | --- | --- | --- |
| 52 | > 10000 | 950 | CCCCc1ccccc1Nc1ncc(Br)c(Nc2ccccc2S(=O)(=O)NC)n1 [Example 3-10] |
| 16 | 300 | 220 | CNS(=O)(=O)c1ccccc1Nc1nc(Nc2cc(N3CCOCC3)ccc2C)ncc1Br [Example 3-20] |
| 38 | 500 | 390 | CNS(=O)(=O)c1ccccc1Nc1nc(Nc2cc(C(=O)NC3CCCCC3)ccc2C)ncc1Br [Example 3-23] |
| 64 | 5000 | 3500 | CNS(=O)(=O)c1ccccc1Nc1nc(Nc2cc(C(=O)N3CCNCC3)ccc2C)ncc1Br [Example 3-24] |
| 50 | 2000 | 790 | CNS(=O)(=O)c1ccccc1Nc1nc(Nc2cc(N3CCCCC3)ccc2C)ncc1Br [Example 3-26] |
| 69 | 3000 | 600 | CCOc1ccc(-c2ccc(OC)cc2)cc1Nc1ncc(Br)c(Nc2ccccc2S(=O)(=O)NC)n1 [Example 3-30] |
| 9 | 900 | > 10000 | CNS(=O)(=O)c1ccccc1Nc1nc(Nc2ccc(N3CCC(C#N)CC3)cc2OC)ncc1Br [Example 3-40] |
| 29 | 300 | 350 | CNS(=O)(=O)c1ccccc1Nc1nc(Nc2ccc(N(CCOC)CCOC)cc2OC)ncc1Br [Example 3-42] |
| 95 | > 10000 | 1200 | CNS(=O)(=O)c1ccccc1Nc1nc(Nc2cc(OC)ccc2OCCOC)ncc1Br [Example 3-59] |
| 27 | > 10000 | > 10000 | CCCOc1ccc(OC)cc1Nc1ncc(Br)c(Nc2ccccc2S(=O)(=O)NC)n1 [Example 3-63] |
| 6 | 390 | 380 | CNS(=O)(=O)c1ccccc1Nc1nc(Nc2cc(-c3ccccn3)ccc2OC)ncc1Br [Example 3-67] |
| 11 | 80 | 50 | CNS(=O)(=O)c1ccccc1Nc1nc(Nc2ccc(OCCCN3CCOCC3)cc2C)ncc1Br [Example 3-71] |
| 15 | 150 | 100 | CNS(=O)(=O)c1ccccc1Nc1nc(Nc2ccc(OC3CCN(C(C)=O)CC3)cc2OC)ncc1Br [Example 3-74] |
| 72 | 1300 | 500 | CNS(=O)(=O)c1ccccc1Nc1nc(Nc2cc(OC3CCN(C(C)=O)CC3)ccc2OC)ncc1Br [Example 3-75] |
| 10 | 220 | > 10000 | CNS(=O)(=O)c1ccccc1Nc1nc(Nc2cc(OC3CCNCC3)ccc2OC)ncc1Br [Example 3-78] |
| 10 | 80 | 1000 | CNS(=O)(=O)c1ccccc1Nc1nc(Nc2cc(N3CCN(C)CC3)ccc2OC)ncc1Br [Example 3-84] |
| 5.2 | 290 | 1000 | CNC(=O)c1ccccc1Nc1nc(Nc2ccc(OCCN3CCOCC3)cc2OC)ncc1Cl [Example 7-4] |
| 4.1 | 180 | 900 | CNC(=O)c1ccccc1Nc1nc(Nc2ccc(N3CCN(C(C)=O)CC3)cc2OC)ncc1Cl [Example 7-7] |
| 8.2 | 850 | 1000 | CCOCCOC1CCN(c2ccc(Nc3ncc(Cl)c(Nc4ccccc4C(=O)NC)n3)c(OC)c2)CC1 [Example 7-9] |
| 6.4 | 420 | 200 | CNC(=O)c1ccccc1Nc1nc(Nc2ccc(N3CCN4CCOC[C@@H]4C3)cc2OC)ncc1Cl [Example 7-16] |
| 2.5 | 110 | > 10000 | CNC(=O)c1ccccc1Nc1nc(Nc2ccc(OCC3CCN(C)CC3)cc2OC)ncc1Cl [Example 7-20] |
| 3.3 | 460 | > 10000 | CNC(=O)c1ccccc1Nc1nc(Nc2ccc(OCCN3CCN(C)CC3)cc2OC)ncc1Cl [Example 7-21] |
| 6.6 | 330 | 600 | CNC(=O)c1ccccc1Nc1nc(Nc2cc(N3CCOCC3)ccc2OC)ncc1Br [Example 8-1] |
| 2.4 | 990 | 500 | CNC(=O)c1ccccc1Nc1nc(Nc2ccc(N3CCOCC3)cc2OC)ncc1Br [Example 8-2] |
| 15 | 810 | 500 | CCNC(=O)c1ccccc1Nc1nc(Nc2ccc(N3CCN(C)CC3)cc2OC)ncc1Cl [Example 9-2] |
| 13 | 730 | 200 | CCNC(=O)c1ccccc1Nc1nc(Nc2ccc(N3CCC(N4CCCC4)CC3)cc2OC)ncc1Cl [Example 9-4] |
